From patent US6569881B1, “Substituted benzimidazole, the production thereof and the use thereof as means against parasitic protozoa” (Bayer Aktiengesellschaft, priority 1999, dated 2003)
Values joined by “and” are separate entries in the source; they are usually repeats but may differ in a detail not shown here. Equal entries are not always repeated.

Assays:
Format in all cases: in vivo, chicken chicks
[1] = system: Eimeria acervulina, Eimeria maxima and Eimeria tenella; assay: Cage experiments coccidiosis/chicks, mixed experimental infection
Summary of the method: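 Male chicks aged 8–12 days, raised coccidia-free, were fed compound in feed (ppm) from day −3 to day 8 (9) p.i. and infected via crop tube with about 100,000 E. acervulina, 30,000 E. maxima and 40,000 E. tenella oocysts. Weight gain, mortality, dropping and lesion scores and oocyst counts were combined into an overall % efficacy.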

Eimeria acervulina = assay: Cage experiments coccidiosis/chicks, Eimeria acervulina part of the mixed infection
Summary of the method: (§1)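 Male chicks 8–12 days old, three per cage, given compound in feed (ppm) from day -3 to 8 (9) days post-infection; infected by crop tube with ~100,000 E. acervulina, ~30,000 E. maxima and 40,000 E. tenella sporulated oocysts. Scored by weight gain, mortality, dropping and lesion scores (0–6), McMaster oocyst counts and sporulation.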

Eimeria maxima = assay: Cage experiments coccidiosis/chicks, Eimeria maxima part of the mixed infection
Summary of the method: as §1

Eimeria tenella = assay: Cage experiments coccidiosis/chicks, Eimeria tenella part of the mixed infection
Summary of the method: as §1

## CO[C@@H]1[C@@H](OC)[C@H](C)[C@@](O)(CC(=O)O)O[C@H]1[C@H](C)[C@H]1O[C@@]2(CC[C@@](C)([C@H]3CC[C@@](C)([C@@H]4O[C@@H]([C@H]5O[C@](C)(O)[C@H](C)C[C@@H]5C)C[C@@H]4O[C@@H]4C[C@H](OC)[C@@H](OC)[C@H](C)O4)O3)O2)C[C@H](O)[C@H]1C [MAD, Maduramicin, reference compound]
[1]; 1 ppm in feed
  % efficacy tot.: 38%
  mortality %: 0%
  mortality n (died/employed): 0/3
  weight % of not inf. control: 77% and 56%
[1]; 1 ppm in feed, grade 0 to 6
  lesion score: 5 and 6
[1]; 2 ppm in feed
  % efficacy tot.: 55% and 32%
  mortality %: 0%
  mortality n (died/employed): 0/3
  weight % of not inf. control: 74% and 60%
[1]; 2 ppm in feed, grade 0 to 6
  lesion score: 3 and 6
[1]; 3 ppm in feed
  % efficacy tot.: 61% and 93%
  mortality n (died/employed): 0/3 and 1/3
  weight % of not inf. control: 76% and 92%
[1]; 3 ppm in feed, grade 0 to 6
  dropping scores: 0
  lesion score: 1
[1]; MAD 1 ppm
  % efficay tot.: 7%
  dropping scores: 6
  lesion score: 6
  mortality %: 0%
  mortality n: 0/3
  oocyst in % of inf. control tot.: 29 % of inf. control
  weight % of not inf. control: 59 % of not inf. control
[1]; MAD 2 ppm
  % efficay tot.: 17%
  dropping scores: 6
  lesion score: 5
  mortality %: 0%
  mortality n: 0/3
  oocyst in % of inf. control tot.: 48 % of inf. control
  weight % of not inf. control: 63 % of not inf. control
[1]; MAD 3 ppm
  % efficay tot.: 60%
  dropping scores: 6
  lesion score: 2.7
  mortality %: 33%
  mortality n: 0/3
  oocyst in % of inf. control tot.: 9 % of inf. control
  weight % of not inf. control: 90 % of not inf. control
Eimeria acervulina; 1 ppm in feed
  oocyst in % of inf. control ac.: 60% and >100%
Eimeria acervulina; MAD 1 ppm
  oocyst in % of inf. control ac.: 39 % of inf. control
Eimeria acervulina; MAD 2 ppm
  oocyst in % of inf. control ac.: 27 % of inf. control
Eimeria acervulina; MAD 3 ppm
  oocyst in % of inf. control ac.: 11 % of inf. control
Eimeria maxima; 3 ppm in feed
  oocyst in % of inf. control max.: 0%
Eimeria maxima; MAD 1 ppm
  oocyst in % of inf. control max.: 86 % of inf. control
Eimeria maxima; MAD 2 ppm
  oocyst in % of inf. control max.: >100 % of inf. control
Eimeria maxima; MAD 3 ppm
  oocyst in % of inf. control max.: 14 % of inf. control
Eimeria tenella; MAD 1 ppm
  oocyst in % of inf. control ten.: 56 % of inf. control
Eimeria tenella; MAD 2 ppm
  oocyst in % of inf. control ten.: 82 % of inf. control
Eimeria tenella; MAD 3 ppm
  oocyst in % of inf. control ten.: 6 % of inf. control
